pEC50, pIC50: −log10 of the molar value.
What was measured:
Type in all cases: cell-based
[1] = tested on: PAH rat pulmonary artery smooth muscle cells (rPASMC MCT); experiment: BrdU cell proliferation assay, 10% FBS, rPASMC MCT
Description: (§1) BrdU (5-bromo-2-deoxyuridine) cell proliferation assay (BrdU assay)
(§2) A 48-well plate was used, and 1.5×10^4 cells were implanted in each well. After 24 hours, the medium was changed to serum-free culture medium and synchronized for 24 hours. A 2-fold concentration of the compound in serum-free culture medium is prepared and the cells were pretreated for 1 hour. Then, the same volume of culture medium containing 20% fetal bovine serum (FBS) was added to dilute the compound. The final concentration was 10% FBS culture medium and 1 times the concentration of the compound. In the experimental group that added TGF-β, the same volume of TGF-β culture medium containing 10 ng/mL was added, with a final concentration of 5 ng/mL TGF-β and 1 times the concentration of the compound, and in the experimental group added with TGF-β, the entire process was conducted in culture medium containing 0.1% serum. Then, BrdU reagent was added about 6 hours later, and the cells were collected the next day for enzyme-linked immunosorbent assay (ELISA) analysis, the compound treatment time was about 24 hours, and the BrdU treatment time was about 18 hours.
(§3) Five compounds to be tested were screened by cell survival assay (MTT assay) and BrdU (5-bromo-2-deoxyuridine) cell proliferation assay, and the information of these compounds was listed in Table 1 below. Tables 2 and 3 respectively listed the growth inhibitions of on human pulmonary artery endothelial cells (hPAEC), human pulmonary artery smooth muscle cells (hPASMC), normal rat pulmonary artery smooth muscle cells (rPASMC, as the control group, represented by “CON”), and rat pulmonary artery smooth muscle cells (represented by “MCT”), by the five compounds to be tested under the conditions of 10% FBS, 0.1% FBS and 100 pM TGF-β.

[2] = tested on: normal rat pulmonary artery smooth muscle cells (rPASMC CON); experiment: BrdU cell proliferation assay, 0.1% FBS, 100 pM TGF-β, rPASMC CON; conditions: 100 pM TGF-β
Description: as §1
as §2, with “with a final concentration of 5 ng/mL TGF-β and 1 times the concentration” left out
Five compounds to be tested were screened by cell survival assay (MTT assay) and BrdU (5-bromo-2-deoxyuridine) cell proliferation assay, and the information of these compounds was listed in Table 1 below.

[3] = tested on: PAH rat pulmonary artery smooth muscle cells (rPASMC MCT); experiment: BrdU cell proliferation assay, 0.1% FBS, 100 pM TGF-β, rPASMC MCT; conditions: 100 pM TGF-β
Description: as §1, §2, §3

[4] = tested on: human pulmonary artery endothelial cells (hPAEC); experiment: BrdU cell proliferation assay, 10% FBS, hPAEC
Description: as §1, §2, §3

[5] = tested on: human pulmonary artery endothelial cells (hPAEC); experiment: BrdU cell proliferation assay, 0.1% FBS, 100 pM TGF-β, hPAEC; conditions: hPAEC, 100 pM TGF-β, 0.1% FBS
Description: as §1, §2, §3

[6] = tested on: normal rat pulmonary artery smooth muscle cells (rPASMC CON); experiment: BrdU cell proliferation assay, 10% FBS, rPASMC CON
Description: as §1, §2, §3

[7] = tested on: TGF-β-stimulated PAI-1 promoter activity; experiment: TGF-β stimulated Pai-1 luciferase assay in MLECs-clone32 cells; conditions: TGF-β 50 pM, 4 hours, read-out: IC50 value of compound inhibiting TGF-β-stimulated Pai-1 luciferase activity (%)
Source text: TGF-β Stimulated Pai-1 Luciferase Assay
MLECs-clone32 cell line was used to measure the impact of different compounds on the downstream gene, plasminogenactivator inhibitor 1 (PAI-1) performance stimulated by TGF-β. MLECs-clone32 is an expression construct that is stably transfected for the Mv1Lu cell line, and the expression construct PAI-1 Luciferase contains a truncated (PAI-1) promoter fused to the firefly luciferase reporter gene^11,12. The activity stimulated by the truncated PAI-I promoter was quantified by using a luciferase assay. The luciferase activity stimulated by TGF-β in cells without compound treatment was set as 100%, and the effects of each compound on TGF-β-stimulated PAI-I promoter activity were compared. The steps for measuring Pai-1 luciferase activity include using a 96-well plate (DMEM medium containing 10% FBS), seeding each well with 1.5×10^5 cells, and culturing in an incubator overnight. After discarding the medium the next day, cells in DMEM medium with or without the addition of test compounds were treated with recombinant TGF-β (50 pM) and allowed to react in a 37° C. incubator for 4 hours. The cell culture medium was aspirated, washed with PBS, and the activity of Pai-1 luciferase was evaluated by luciferase assay.

[8] = tested on: human pulmonary artery smooth muscle cells (hPASMC); experiment: BrdU cell proliferation assay, 10% FBS, hPASMC
Description: as §1, §2, §3

[9] = Rattus norvegicus, read-out: EC50 (concentration for 50% of maximal effect)

CC(C)CCCC(C)C1CCC2C3=CC=C4CC(O)CCC4(C)C3CCC21C (stereo not drawn) [Code 039, 7-DHC]
pEC50 [1, 9]: 4.43 | Inhibition of cell growth (in words) ([1]; rPASMC MCT4, 10% FBS, FIG. 2): significant inhibitory effects | pEC50 ([2]; Rattus norvegicus, CON (normal rPASMC), 0.1% FBS, read-out: EC50): 4.52 | Inhibition of cell growth (in words) ([2]; rPASMC CON3, 0.1% FBS, 25 μM, FIG. 3): significant inhibitory effects | pEC50 ([3]; Rattus norvegicus, MCT (PAH rPASMC), 0.1% FBS, read-out: EC50): 4.70 | Inhibition of cell growth (in words) ([3]; rPASMC MCT2, 0.1% FBS, 25 μM, FIG. 3): significant inhibitory effects | pEC50 ([4]; Homo sapiens, Endothelial cell, read-out: EC50 (concentration for 50% of maximal effect)): 4.33 | Inhibition of cell growth (in words) ([4]; hPAEC, 10% FBS, FIG. 2): inhibition of cell growth can also be observed | pEC50 ([5]; Homo sapiens, Endothelial cell, read-out: EC50): 4.64 | Inhibition of cell growth (in words) ([5]; 25 μM, FIG. 3): inhibition of cell growth | pEC50 [6, 9]: 4.42 | Inhibition of cell growth (in words) ([6]; rPASMC CON1, 10% FBS, FIG. 2): significant inhibitory effects | pIC50 [7]: 4.81 | pEC50 ([8]; Homo sapiens, read-out: EC50 (concentration for 50% of maximal effect)): 4.28 | Inhibition of cell growth (in words) ([8]; hPASMC, 10% FBS, FIG. 2): inhibition of cell growth can also be observed
